Experimental data published in patent US12226410B2, “Methods for enhancing cellular clearance of pathological molecules via activation of the cellular protein ykt6” (NORTHWESTERN UNIVERSITY, priority 2019, dated 2025).

Tests used:
[1] = tested on: a-syn; assay: Sequential extraction/western blot of a-syn in FTI-treated A53T iPSn; format: cell-based, human; conditions: 5 nM, 7d
Procedure: FIGS. 6A, 6B, 6C, 6D, 6E, 6F, and 6G. FTIs enhance lysosomal GCase activity and reduce pathological a-syn by blocking ykt6 farnesylation. 6A) GCase activity in FTI-treated A53T iPSn at d80 (LNK-754 5 nM, 5d). 6B) GCase activity in FTI-treated A53T iPSn expressing empty vector (vect) or ykt6-CS (n=4). 6C) Lysosomal GCase activity was assessed in FTI-treated SHSY5Y cells transfected with scrambled or ykt6 shRNA (KD) (n=3). 6D) Quantification of Triton X-100 soluble (T-sol) a-syn by western blot from FTI-treated A53T iPSn (5 nM, 7d). *, non-specific band. (n=3). 6E) Quantification of insoluble a-syn from A53T iPSn as in D (n=3). 6F) Insoluble a-syn in FTI-treated H4 cells (5 nM, 5 days) transfected with either scrambled or ykt6 shRNA (n=6). 6G) Neuron viability was assessed in FTI-treated A53T iPSn (5 nM, 14d from d86-d100) by quantification of neurofilament protein. Right, neuron viability in FTI-treated A53T iPSn expressing empty vector or ykt6-CS (n=4). Values are the mean+/−SEM, *p<0.05, **p<0.01, ***p<0.001.
Sequential biochemical extraction for the analysis of pathological a-synuclein. […] Protein concentration was measured by BCA assay (Pierce). […]
Western blot analysis. […] The blots were washed as before and scanned/analyzed using an Odyssey infrared imaging system with Image Studio Software. […]

[2] = tested on: ykt6 SNARE complexes; assay: Co-IP of GFP-ykt6 SNARE assemblies in FTI-treated SH-SY5Y cells; format: cell-based, human; conditions: SH-SY5Y cells expressing GFP-ykt6 wt; 5 nM, 5d
Procedure: FIGS. 5A, 5B, 5C, 5D, 5E, 5F, and 5G. Reducing farnesyl-ykt6 enhances SNARE assembly and improves the lysosomal targeting of GCase. 5A) Ykt6 membrane shift analysis of SH-SY5Y cells expressing GFP-ykt6 wt or CS (n=3). 5B) Co-IP of GFP-ykt6 and bet1 in A53T iPSn (n=3). 5C) Ykt6 membrane shift analysis in FTI-treated SH-SY5Y wt a-syn cells or A53T iPSn (5 nM farnesyltransferase inhibitors (FTI) LNK-754 (FTI-1) or LNK-3248 (FTI-2) for 5 days) (n=4). Sec22b was measured to assess specificity. 5D) SEC/western blot of FTI-1 treated SH-SY5Y cells. Quantification is shown below. 5E) Co-IP of GFP-ykt6 wt or mutant ykt6-SS, (cannot be palmitoylated or farnesylated) in FTI-treated SHSY5Y cells (5 nM LNK-754, 5d) (n=2). 5F) Immunofluorescence of GCase and LAMP2A in FTI-treated H4 a-syn cells transfected with scrambled (scrb) or ykt6 shRNA (n=3). Scale bar=10 um. 5G) GCase maturation analysis in FTI-treated A53T iPSn by endo H (n=3). Values are the mean+/−SEM, *p<0.05.
To co-IP ykt6 SNARE assemblies, approximately 106-107 cells expressing GFP-tagged YKT6, were harvested in 1 ml of PBS, scraped off the plate and transferred to centrifuge tubes. The cells were subjected to centrifugation 200×g for 5 m at 4° C. […] Eluates were analyzed by western blot as described below. The samples were not analyzed in a blinded manner.

Structure (SMILES): C#Cc1cccc(-c2cc(=O)n(C)c3ccc([C@](O)(c4ccc(Cl)cc4)c4cncn4C)cc23)c1 [LNK-754]
- soluble and insoluble levels of a-syn (C20, syn303) [1]: reduced
- ykt6 SNARE complexes by co-IP [2]: increased ykt6 SNARE complexes
